Molecules are shown by their SMILES.

The target of assay [1] is T1, 6-phosphofructokinase I (PfkA) (Escherichia coli, UniProt P0A796).
T1 construct: full-length His-tagged protein from ASKA library clone (E. coli K-12 ORF collection)
T1 sequence (P0A796 1-320): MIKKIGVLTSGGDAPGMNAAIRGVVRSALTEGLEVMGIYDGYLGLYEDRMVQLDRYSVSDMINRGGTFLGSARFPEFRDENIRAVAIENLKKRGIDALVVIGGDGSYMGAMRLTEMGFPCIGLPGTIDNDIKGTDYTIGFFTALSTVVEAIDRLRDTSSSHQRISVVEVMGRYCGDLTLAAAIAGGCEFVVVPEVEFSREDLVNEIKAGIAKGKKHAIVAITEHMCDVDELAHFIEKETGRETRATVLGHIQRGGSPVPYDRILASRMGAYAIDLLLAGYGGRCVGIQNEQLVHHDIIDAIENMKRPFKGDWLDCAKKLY
The assay can be described thus: ligand-detected T1rho 1H NMR. The class given is binding. The conditions noted are these: 15 uM monomer, 200 uM metabolite in mix, pH 7.5, 298 K, 5 mM MgCl2.

The target in assay [2] is T2, NADP+-dependent glucose-6-phosphate dehydrogenase (Zwf) (Escherichia coli, UniProt P0AC53).
T2 construct: full-length His-tagged protein from ASKA library clone (E. coli K-12 ORF collection)
T2 sequence (P0AC53 whole entry): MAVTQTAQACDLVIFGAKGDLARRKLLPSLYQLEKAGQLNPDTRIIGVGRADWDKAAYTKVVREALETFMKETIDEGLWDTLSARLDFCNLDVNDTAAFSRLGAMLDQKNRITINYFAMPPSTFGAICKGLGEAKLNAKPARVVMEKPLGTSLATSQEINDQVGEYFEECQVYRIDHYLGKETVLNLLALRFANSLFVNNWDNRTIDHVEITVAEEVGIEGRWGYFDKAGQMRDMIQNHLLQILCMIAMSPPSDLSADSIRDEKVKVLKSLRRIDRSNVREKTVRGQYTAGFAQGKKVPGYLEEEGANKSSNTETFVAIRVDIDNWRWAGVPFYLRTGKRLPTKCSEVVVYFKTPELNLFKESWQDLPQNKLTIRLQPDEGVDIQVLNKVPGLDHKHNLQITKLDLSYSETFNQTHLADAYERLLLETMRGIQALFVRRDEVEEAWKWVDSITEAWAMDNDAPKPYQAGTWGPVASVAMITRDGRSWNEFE
The assay can be described thus: ligand-detected T1rho 1H NMR; inhibition checked by NADPH formation assay. The class given is biochemical. The conditions noted are these: NMR: 15 uM monomer, 200 uM metabolite in mix, pH 7.5, 298 K, 5 mM MgCl2; activity: 2 and 10 mM GTP, 2 mM G6P, 1 mM NADP+, 30 C.

A further assay concerns the target T3, enolase (Eno) (Escherichia coli, UniProt P0A6P9).
T3 construct: full-length His-tagged protein from ASKA library clone (E. coli K-12 ORF collection)
Put plainly: ligand-detected T1rho 1H NMR. It counts as binding. The note with it: 15 uM monomer, 200 uM metabolite in mix, pH 7.5, 298 K, 5 mM MgCl2.

T3 sequence (P0A6P9 2-432): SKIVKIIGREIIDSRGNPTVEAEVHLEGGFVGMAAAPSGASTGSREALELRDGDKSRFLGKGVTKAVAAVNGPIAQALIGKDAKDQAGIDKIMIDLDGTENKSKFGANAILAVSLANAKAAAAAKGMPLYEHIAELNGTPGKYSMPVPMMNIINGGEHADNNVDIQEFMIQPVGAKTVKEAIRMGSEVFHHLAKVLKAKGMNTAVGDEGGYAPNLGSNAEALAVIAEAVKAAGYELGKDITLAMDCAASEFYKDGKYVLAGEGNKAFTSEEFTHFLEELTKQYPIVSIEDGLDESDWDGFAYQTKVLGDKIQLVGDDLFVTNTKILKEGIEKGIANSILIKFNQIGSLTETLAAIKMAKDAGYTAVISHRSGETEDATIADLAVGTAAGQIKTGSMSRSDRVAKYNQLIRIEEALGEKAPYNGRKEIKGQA

Turning to `Nc1ncnc2c1ncn2[C@@H]1O[C@H](COP(=O)(O)O)[C@@H](O)[C@H]1O` [AMP], the ΔRF result in assay [1] was “two of which were detected in both datasets (Eno–PEP and PfkA–AMP)”.
Take `Nc1nc2c(ncn2[C@@H]2O[C@H](COP(=O)(O)OP(=O)(O)OP(=O)(O)O)[C@@H](O)[C@H]2O)c(=O)[nH]1` [GTP]: the ΔRF result in assay [2] was “ATP and GTP indeed inhibited Zwf even at physiological concentrations of MgCl2”.
`C=C(OP(=O)(O)O)C(=O)O` [phosphoenolpyruvate]: the ΔRF entry on enolase (Eno) was “two of which were detected in both datasets (Eno–PEP and PfkA–AMP)”.

The values are drawn from paper PMC6706640, “Systematic mapping of protein‐metabolite interactions in central metabolism of Escherichia coli” (Molecular Systems Biology, 2019).
